From patent publication US20130323171A1, “RADIOLABELED BBN ANALOGS FOR PET IMAGING OF GASTRIN-RELEASING PEPTIDE RECEPTORS” (priority 2012, published 2013) come the findings set out here.

Square brackets hold non-standard residues; d marks the D form. Peptide text beside a SMILES is read from it. Sta = CC(C)C[C@H](N)[C@@H](O)CC(=O)O; 4Abz = Nc1ccc(C(=O)O)cc1

A short description of data set [1]: Mouse serum stability of the PET probes. It is filed as in vitro ADME. To be noted: 37° C., 1 h. The method, then:
The in vitro stability of the PET probes was evaluated by incubation with mouse serum (1 mL) at 37° C. for 1 h. The solutions were filtered using a NanoSep 10 K centrifuge (Pall Corp.) to isolate low-molecular-weight radiocomplexes. The samples were analyzed by the radio-HPLC, and the percentages of intact PET probe were determined by quantifying the peaks corresponding with the intact probe and degradation products.
More than 95% of the probes remained intact after 1 h of incubation in mouse serum at 37° C.

Data set [2] addresses T1, GRPR (Homo sapiens, UniProt P30550).
T1 construct: endogenous in cells; host or cells: PC3 cells
As to the kind of experiment: Cell-binding assay: inhibition of ^125I-[Tyr4]BBN binding on PC3 cells. To be noted: 0.06 nM radioligand, 37° C., 1 h, n=4, mean±SD. The method, then: The cell-binding assay was performed similarly as previously reported (18, 35). Briefly, the PC3 cells (3×10^4) were incubated with 0.06 nM ^125I-[Tyr4]BBN and varying concentrations of peptides in the binding buffer (RPMI 1640+2 mg/mL BSA+5.2 mg/mL HEPES) at 37° C. for 1 h. The cell-bound, residual radioactivity after washing was determined by gamma counting. […] The experiments were performed in quadruplicate.
All of these peptides inhibited the GRPR-binding of ^125I-[Tyr4]BBN on the PC3 cells in a concentration-dependent manner.

T1 sequence (P30550 whole entry): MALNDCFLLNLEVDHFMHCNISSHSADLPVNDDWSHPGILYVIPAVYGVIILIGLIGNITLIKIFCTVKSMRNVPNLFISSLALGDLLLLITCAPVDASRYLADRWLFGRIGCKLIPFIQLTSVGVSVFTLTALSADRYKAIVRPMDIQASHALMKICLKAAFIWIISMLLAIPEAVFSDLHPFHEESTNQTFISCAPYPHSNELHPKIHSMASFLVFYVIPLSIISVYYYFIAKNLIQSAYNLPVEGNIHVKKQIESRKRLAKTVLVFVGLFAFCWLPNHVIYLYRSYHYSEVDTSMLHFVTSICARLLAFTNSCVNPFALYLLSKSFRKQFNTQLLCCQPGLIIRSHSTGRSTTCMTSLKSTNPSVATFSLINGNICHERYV

With `CSCC[C@H](NC(=O)[C@H](CC(C)C)NC(=O)[C@H](Cc1c[nH]cn1)NC(=O)CNC(=O)[C@@H](NC(=O)[C@H](C)NC(=O)[C@H](Cc1c[nH]c2ccccc12)NC(=O)[C@H](CCC(N)=O)NC(=O)c1ccc(NC(=O)CNC(=O)CCC(C(=O)O)N2CCN(CC(=O)O)CCN(CC(=O)O)CC2)cc1)C(C)C)C(N)=O` (single isomer, unassigned) [^64Cu-NODAGA-AMBA, metal not drawn], the “stability in mouse serum” value in data set [1] is reported as “exhibited degradation”.
The term IC50 denotes the point on the concentration scale where inhibition reaches its midpoint. A low value points to greater potency. In data set [2], `CSCC[C@H](NC(=O)[C@H](CC(C)C)NC(=O)[C@H](Cc1c[nH]cn1)NC(=O)CNC(=O)[C@@H](NC(=O)[C@H](C)NC(=O)[C@H](Cc1c[nH]c2ccccc12)NC(=O)[C@H](CCC(N)=O)NC(=O)c1ccc(NC(=O)CN)cc1)C(C)C)C(N)=O` [AMBA] showed a half-inhibitory concentration (IC50) of 0.17 ± 0.07 nM.
In turn, `CC(C)C[C@H](NC(=O)C[C@H](O)[C@H](CC(C)C)NC(=O)[C@H](Cc1c[nH]cn1)NC(=O)CNC(=O)[C@@H](NC(=O)[C@H](C)NC(=O)[C@H](Cc1c[nH]c2ccccc12)NC(=O)[C@H](CCC(N)=O)NC(=O)[C@@H](Cc1ccccc1)NC(=O)c1ccc(NC(=O)CN)cc1)C(C)C)C(N)=O` [RM1, G-4-aminobenzoyl-D-Phe-Gln-Trp-Ala-Val-Gly-His-Sta-Leu-NH2] (H-G[4Abz][dF]QWAVGH[Sta]L-NH2; N-terminus assumed) came in with an IC50 in data set [2] of 0.25 ± 0.04 nM.
